{"source": "patent US9220787B2", "about": "“Vitamin E conjugates, and their uses as antioxidants and prodrug delivery vehicles” (Board of Supervisors of Louisiana State University And …, priority 2010, dated 2015)", "data": [{"system": "α-tocopherol transfer protein (α-TTP)", "test": "not given", "conditions": "relative affinity, RRR-α-tocopherol essentially 100%; cited from earlier work", "units": {"affinity of Alpha-TTP": "%"}, "values": [{"smiles": "Cc1c(C)c2c(c(C)c1O)CCC(C)(C(=O)O)O2", "note": "(stereo not shown) [Trolox, 6-hydroxy-2,5,7,8-tetramethylchroman-2-carboxylic acid]", "affinity of Alpha-TTP": 9}, {"smiles": "Cc1c(C)c2c(c(C)c1O)CC[C@@](C)(CCC[C@H](C)CCC[C@H](C)CCCC(C)C)O2", "note": "[RRR-α-tocopherol]", "affinity of Alpha-TTP": "~100"}, {"smiles": "CC(=O)Oc1c(C)c(C)c2c(c1C)CCC(C)(CCC[C@H](C)CCC[C@H](C)CCCC(C)C)O2", "note": "(stereo partly drawn) [α-tocopherol acetate]", "affinity of Alpha-TTP": 2}, {"smiles": "Cc1cc(O)c(C)c2c1O[C@](C)(CCC[C@H](C)CCC[C@H](C)CCCC(C)C)CC2", "note": "[β-tocopherol]", "affinity of Alpha-TTP": 38}, {"smiles": "Cc1c(O)cc2c(c1C)O[C@](C)(CCC[C@H](C)CCC[C@H](C)CCCC(C)C)CC2", "note": "[γ-tocopherol]", "affinity of Alpha-TTP": 9}]}, {"system": "not listed separately", "test": "DPPH assay (antioxidant activity, free radical scavenging)", "type": "biochemical", "conditions": "5 concentrations, 0.1 mM DPPH, water:methanol 1:1, reading after 30 min at 518 nm, read-out: IC50, the point at which 50% of DPPH had been reduced", "from_the_text": "Assays that may be used to measure free radical scavenging properties include, for example, the DPPH assay and the ABTS assay. The 1,1-diphenyl-2-picryl hydrazyl (DPPH) radical is a stable free radical of purple color. Adding an antioxidant reduces the DPPH radical, which can be observed by color change (to yellow) in a spectrophotometer, for example by measuring absorbance at 518 nm. Mixing 2,2-α-azino-bis-(3-ethylbenzthiazoline-6-sulfonic acid) (ABTS) and hydrogen peroxide produces the ABTS radical (ABTS^●). Subsequent incubation with peroxidase produces the radical cation ABTS^•+. Adding an antioxidant causes an attenuation of the color change, which can be measured for example at 734 nm. The activity of an antioxidant is conventionally expressed as the concentration of an equivalent millimolar standard Trolox solution.\nA stock solution of DPPH in methanol, 0.4 mM was prepared and stored in the dark at −20° C. prior to use. A test sample was diluted with water (pH=3.5 prepared by addition of acetic acid) to 1 ml. The sample was then added to the dilute DPPH stock in methanol to obtain a final sample volume of 2 ml with a 0.1 mM DPPH concentration. The water:methanol ratio was 1:1 (v/v). A blank was prepared with 1 ml of water (pH=3.5) and pure methanol. […] Absorption readings were taken after 30 min at 518 nm using a Geminys 6 spectrophotometer (Thermo Scientific, Waltham, Mass.). […]", "units": {"IC50": "µM"}, "values": [{"smiles": "Cc1c(C)c2c(c(C)c1O)CC[C@@](C)(CCC[C@H](C)CCC[C@H](C)CCCC(C)C)O2", "note": "[alpha-tocopherol]", "IC50": "24.4 ± 1.5"}, {"smiles": "COC(=O)C(Cc1c[nH]cn1)NC(=O)CCNC(=O)CCCCCCCCCCCC[C@]1(C)CCc2c(C)c(O)c(C)c(C)c2O1", "note": "(stereo partly drawn) [VECAR, methyl 2-(3-(13-((R)-6-hydroxy-2,5,7,8-tetramethylchroman-2-yl)tridecanamido)propanamido)-3-(1H-imidazol-4-yl)propanoate]", "IC50": "24.9 ± 1.4"}]}]}
